Measured values: patent publication US7618978B2, “Amides as BACE inhibitors” (Eli Lilly and Company, priority 2004, dated 2009)
Counter-ions that a name gives are not always drawn.

Assays:
human BACE1(1-460):Fc = biological target: T1, human BACE1(1-460):Fc (Homo sapiens, UniProt P56817); experiment: BACE1 mcaFRET Assay; type: biochemical; details: FRET substrate 15 micromolar, pH 4.6, 16 to 24 hours at room temperature
T1 construct: made in house; host or cells: HEK293 cells, transient transfection, conditioned medium
T1 sequence (P56817 22-460): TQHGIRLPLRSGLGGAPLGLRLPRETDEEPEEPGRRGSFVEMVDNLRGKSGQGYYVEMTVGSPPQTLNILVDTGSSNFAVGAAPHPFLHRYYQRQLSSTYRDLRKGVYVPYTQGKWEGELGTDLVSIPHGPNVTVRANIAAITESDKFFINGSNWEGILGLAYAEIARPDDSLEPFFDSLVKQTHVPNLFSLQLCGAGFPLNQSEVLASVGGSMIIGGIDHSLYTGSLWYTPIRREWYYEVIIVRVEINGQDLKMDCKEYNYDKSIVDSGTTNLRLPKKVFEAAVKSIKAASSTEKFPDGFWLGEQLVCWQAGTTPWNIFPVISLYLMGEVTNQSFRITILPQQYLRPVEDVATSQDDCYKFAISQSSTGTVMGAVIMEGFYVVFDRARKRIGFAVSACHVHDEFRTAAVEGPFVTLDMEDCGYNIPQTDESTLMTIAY
Description: (§1) For in vitro enzymatic and cellular assays, test compounds are prepared in DMSO to make up a 10 millimolar stock solution. The stock solution is serially diluted (in a 1:3, 1:2.5, 1:2, or 1:1 dilution series) in DMSO to obtain a final compound concentration of 10 millimolar to 1 micromolar at the first highest concentration of a ten-point dilution curve in a 96-well round-bottom plate right before conducting the in vitro enzymatic and whole assays.
Serial dilutions of test compounds are prepared as described above. Two microliter of each dilution is added to each well on row A to H of a corresponding low protein binding black plate to which 50 microliter of 50 millimolar ammonium acetate, pH 4.6, 1 mM Triton X-100, 1 mg/ml Bovine Serum Albumin, and 15 micromolar of FRET substrate (sequence: (MCA)-S-E-V-N-L-D-A-E-F-R-K(Dnp)-R-R-R-R-NH2) for BACE1 activity are pre-added. The content is mixed well on a plate shaker for 10 min. Fifty microliter of two hundred picomolar human BACE1(1-460):Fc (See: Vasser, et al., Science, 286, 735-741 (1999)) in the same reaction buffer described above is added to the plate containing substrate and test compounds to initiate the reaction. The relative fluorescence unit (RFU) of the mixture at time 0 is recorded at excitation wavelength 330 nm and emission wavelength 400 nm, after brief mixing on a plate shaker. The reaction plate is covered with aluminum foil and kept in a dark humidified oven at room temperature for 16 to 24 hours. The RFU at the end of incubation is recorded with the same excitation and emission setting. The difference of the RFU at time 0 and the end of incubation represents the activity of BACE1 under the compound-treatment. The 10-point inhibition curve was plotted and fitted with the four-parameter logistic equation to obtain the EC50 and IC50 values. (See: Sinha, et al., Nature, 402, 537-540 (2000)). […] Data for selected compounds of the invention tested in this assay are contained in the following table.
Both human (accession number: AF190725) and murine (accession number: NM_011792) BACE1 were cloned from total brain cDNA by […]. The nucleotide sequences corresponding to amino acid sequences #1 to 460 were inserted into the cDNA encoding human IgG1 (Fc) polypeptide (Vassar et al. 1999). This fusion protein of BACE1(1-460) and human Fc, named huBACE1:Fc, was constructed into the pJB02 vector. Human BACE1(1-460):Fc (huBACE1:Fc) and murine BACE1(1-460):Fc (muBACE1:Fc) were transiently expressed in HEK293 cells. 250 μg cDNA of each construct was mixed with Fugene 6 and added to 1 liter HEK293 cells. Four days after the transfection, conditioned media were harvested for purification. Purification of huBACE1:Fc and muBACE1:Fc.
Conditioned media of […] cell transiently transfected with huBACE1:Fc or muBACE1:Fc cDNA were collected. Cell debris was removed by filtering the conditioned media through 0.22 μm sterile filter. 5 ml Protein A-agarose (bed volume) was added to 4 liter conditioned media. This mixture was gently stirred overnight at […]. The Protein A-agarose resin was collected and packed into a low-pressure chromatography column. The column was washed with 20× bed volumes of PBS at flow rate 20 ml per hour. Bound huBACE1:Fc or muBACE1:Fc protein was eluted with 50 mM acetic acid, pH 3.6, at flow rate 20 ml per hour. […] The purity of final product was assessed by electrophoresis in 4-20% Tris-Glycine SDS-PAGE. […]

beta-secretase activity = biological target: T2, beta-secretase activity (Homo sapiens, UniProt P56817); experiment: Whole Cell Assay for Measuring the Inhibition of Beta-Secretase Activity; type: cell-based; details: HEK293/APP751sw or HEK293/APP751wt cells, 4 to 6 hours at 37C, Abeta, sAPPbeta-lowering effect by sandwich ELISA
T2 construct: endogenous in cells; host or cells: HEK293p (ATCC CRL-1573) stably expressing human APP751sw or APP751wt
T2 sequence (P56817 46-501): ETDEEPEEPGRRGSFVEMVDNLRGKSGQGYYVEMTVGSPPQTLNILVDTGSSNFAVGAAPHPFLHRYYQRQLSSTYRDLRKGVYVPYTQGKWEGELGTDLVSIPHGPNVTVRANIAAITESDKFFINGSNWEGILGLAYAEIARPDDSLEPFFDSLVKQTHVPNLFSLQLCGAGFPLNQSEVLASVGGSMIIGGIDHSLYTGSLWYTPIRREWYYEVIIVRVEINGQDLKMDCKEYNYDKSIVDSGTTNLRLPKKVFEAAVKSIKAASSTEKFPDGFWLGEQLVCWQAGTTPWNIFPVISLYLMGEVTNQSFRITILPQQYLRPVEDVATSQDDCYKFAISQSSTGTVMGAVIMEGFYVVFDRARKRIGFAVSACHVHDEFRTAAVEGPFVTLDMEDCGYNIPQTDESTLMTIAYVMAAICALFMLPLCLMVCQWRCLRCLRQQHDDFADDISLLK
Description: as §1
The routine whole cell assay for the measurement of inhibition of beta-secretase activity utilizes the human embryonic kidney cell line HEK293p (ATCC Accession No. CRL-1573) stably expressing a human APP751 cDNA containing the naturally occurring double mutation […] to Asn651Leu652, commonly called the Swedish mutation (noted HEK293/APP751sw) and shown to overproduce Abeta (Citron et al., 1992, Nature 360:672-674). Human embryonic kidney HEK293p cells stably expressing wild-type human APP751 cDNA (noted HEK293/APP751wt) are also used to assess the inhibition of beta-secretase activity. In vitro Aβ reduction assays have been described in the literature (See: Dovey, et al., Journal of Neurochemistry, 76, 173-181 (2001); Seubert, et al., Nature, 361, 260 (1993); and Johnson-Wood, et al., Proc. Natl. Acad. Sci. USA, 94, 1550-1555 (1997))
Cells (HEK293/APP751sw or HEK293/APP751wt, at 3×10^4 cells/well, containing 200 microliters culture media, DMEM containing 10% FBS) are incubated at 37C for 4 to 6 hours in the presence/absence of inhibitors (diluted in DMSO) at the desired concentration. At the end of the incubation, conditioned media are analyzed for beta-secretase activity, for example, by analysis of cleavage fragments, Abeta peptide and sAPPbeta. Abeta peptides are measured by a sandwich ELISA, using monoclonal 266 as a capture antibody and biotinylated 3D6 as reporting antibody. The sAPPbeta fragments are analyzed by a sandwich ELISA, using monoclonal 8E5 antibody as a capture antibody and rabbit polyclonal 192sw or 192wt as a reporting antibody. Note that sAPPbeta is the cleavage product of full length APP by BACE 1. The concentration of sAPPbeta released in the conditioned media following the compound treatment corresponds to the activity of BACE1 under such conditions. The 10-point inhibition curve was plotted and fitted with the four-parameter logistic equation to obtain the EC50 and IC50 values for the Abeta, sAPPbeta-lowering effect. Data for selected compounds of the invention tested in this assay are contained in the following table.

| Compound | IC50 (human BACE1(1-460):Fc) [µM] | IC50 (beta-secretase activity) [µM] |
| --- | --- | --- |
| CC(=O)N[C@@H](Cc1cc(F)cc(F)c1)[C@H](O)[C@H]1CC[C@@H](OCCC(C)C)CN1 [Example 55, N-(1S, 2R)-{1-(3,5-Difluoro-benzyl)-2-hydroxy-2-[(5R,2R)-5-(3-methyl-butoxy)-piperidin-2-yl]-ethyl}-acetamide hydrochloride] | 6.9 | 6.1 |
| CC(=O)N[C@@H](Cc1cc(F)cc(F)c1)[C@H](O)[C@H]1CC[C@@H](OCC(C)C)CN1 [Example 58, N-(1S,2R)-{1-(3,5-Difluoro-benzyl)-2-hydroxy-2-[(5R,2R)-5-isobutoxy-piperidin-2-yl]-ethyl}-acetamide hydrochloride] | 6.8 | – |
| CCC(C)Nc1cc(C(=O)N[C@@H](Cc2ccccc2)[C@@H](O)[C@H]2CN(C(C)=O)CCN2)cc(N(C)S(C)(=O)=O)n1 (stereo partly drawn) [Example 7, N-[(1S,2R)-2-(R)-(4-Acetylpiperazin-2-yl)-1-benzyl-2-hydroxyethyl]-2-sec-butylamino-6-(methanesulfonyl-methylamino)-isonicotinamide hydrochloride] | 0.003 | 0.045 |

The next lines start with the values.

| IC50 (human BACE1(1-460):Fc) [µM] | IC50 (beta-secretase activity) [µM] | Compound |
| --- | --- | --- |
| 0.001 | 0.041 | CCC(C)Nc1cc(C(=O)NC(Cc2ccccc2)C(O)C2NCCN(C)C2=O)cc(N(C)S(C)(=O)=O)n1 [Example 3, N-[1-(S)-Benzyl-2-hydroxy-2-(4-methyl-3-oxopiperazin-2-yl)-ethyl]-2-(S)-sec-butylamino-6-(methylsulfonyl-methylamino)-isonicotinamide hydrochloride] |
| 13.1 | 17.1 | CC(=O)NC(Cc1cc(F)cc(F)c1)C(O)C1CCC(OCc2ccccc2)CN1 [Example 19, N-{(1S,2R)-2-[(5R,2R)-5-Benzyloxy-2-piperidin-2-yl]-1-(3,5-difluoro-benzyl)-2-hydroxy-ethyl}-acetamide hydrochloride] |
